Assay results published in BigSolDB 2.1.

O=C([O-])c1ccccc1.[K+]
solubility (mole fraction)
Settings	in DMAc	in DMF	in ethanol	in formamide	in isobutanol	in isopropanol	in methanol	in n-butanol	in n-pentanol	in n-propanol
282.95 K	0.000243	0.000325	0.00133	0.0439	0.000248	0.000225	0.0144	0.000586	0.000517	0.000735
287.95 K	0.000263	0.000372	0.00143	0.0444	0.000284	0.000256	0.0148	0.000617	0.000604	0.000781
293.25 K	0.000287	0.000426	0.00157	0.045	0.000325	0.000286	0.0153	0.000646	0.000693	0.000841
298.25 K	0.000309	0.000502	0.00168	0.0457	0.000355	0.000314	0.0158	0.000673	0.000776	0.000892
303.35 K	0.000333	0.000587	0.00181	0.0465	0.000402	0.000354	0.0162	0.000731	0.000865	0.000961
308.25 K	0.000367	0.000665	0.00192	0.0473	0.000457	0.000409	0.0167	0.000795	0.000929	0.00104
312.85 K	0.000392	0.000722	0.0021	0.0481	0.000517	0.000459	0.0172	0.000898	0.000986	0.00115
317.95 K	0.000425	0.000778	0.00244	0.0489	0.000572	0.000511	0.0181	0.000983	0.00105	0.00126
